# Assay results published in patent US10017817B2, “Skin activation by acceleration of PDGF-BB activity” (Shiseido Company, Ltd., priority 2010, dated 2018).
# B1: PDGF-BB: platelet-derived growth factor-BB protein (R&D Systems Inc.), homodimer of the PDGF B chain (protein, UniProt P01127 82-190, looked up)
# Platelet-derived growth …: SLGSLTIAEPAMIAECKTRTEVFEISRRLIDRTNANFLVWPPCVEVQRCSGCCNNRNVQCRPTQVQLRPVQVRKIEIVRKKPIFKKATVTLEDHLACKCETVAAARPVT
# modifications: homodimer
# notes: platelet-derived growth factor-BB protein (R&D Systems Inc.), homodimer of the PDGF B chain
# Legend:
# [1] = tested on: PDGF-BB expression in human vascular endothelial cells HUVEC; test: Evaluation of PDGF-B production accelerating action in vascular endothelial cells (ELISA and quantitative RT-PCR); assay type: cell-based; conditions: retinoic acid at 1 μm or 10 μm vs DMSO solvent control, cultured 2 days, PDGF-BB in culture supernatant by ELISA and PDGF-B mRNA by quantitative PCR (FIG. 8)
# Experimental: Evaluation of PDGF-B Production Accelerating Action in
# Vascular Endothelial Cells
# Human vascular endothelial cells HUVEC were sub-cultured in EGM-2 medium (Sanko Junyaku Co., Ltd.), and the fourth generation cells were suspended in Humedia-EG2 medium not containing VEGF-A (Kurabo Industries Ltd.), followed by disseminating in a collage-coated 24-well multiplate (Asahi Glass Co., Ltd.) at a ratio of 20,000 cells and culturing for 3 to 5 days at 37° C. until the cells reached confluence in the presence of 5% CO2. After replacing the medium with Humedia-EG2 medium (Kurabo Industries Ltd.) containing retinoic acid at 1 μm or 10 μm or DMSO used as a solvent control, culturing was further continued for 2 days. Following completion of culturing, the culture supernatant was recovered and PDGF-BB was quantified in accordance with the protocol provided using Human PDGF-BB Quantikine ELISA Kit (R&D Systems Inc.). […] One-step quantitative RT-PCR was then carried out on the PDGF-B gene for each sample using an equal volume of mRNA as template, using the primer pair of SEQ ID NO: 9 and SEQ ID NO: 10, and using QuantiFast SYBR Green RT-PCR Kit (Qiagen Inc.) for the reaction reagent and LightCycler (Roche Diagnostics GmbH) for the reaction apparatus. […]
# [2] = tested on: adipose-derived mesenchymal stem cells MSC; test: Evaluation of migration ability of mesenchymal stem cells (cell insert assay); assay type: cell-based; conditions: 5 ng/ml to 30 ng/ml in StemPro serum-free MSC medium; overnight; in comparison with PDGF-AA and PDGF-AB (FIG. 2)
# Experimental: Evaluation of Migration Ability
# Commercially available adipose-derived mesenchymal stem cells MSC were purchased and sub-cultured in MesenPro mesenchymal stem cell medium (Invitrogen Corp.). Then, PDGF-AA, PDGF-AB or PDGF-BB (R&D Systems Inc.) was added to StemPro serum-free MSC medium (Invitrogen Corp.) in 24-well culture plates at a concentration of 5 ng/ml to 30 ng/ml, and fibronectin-coated cell inserts (BD Bioscience Inc.) were placed thereon followed by seeding 50,000 MSC suspended in StemPro medium. After culturing overnight in a CO2 incubator, the culture fluid was removed by aspiration. Thereafter, the cell inserts were immersed for 10 minutes in Hoechist 33258-PBS solution, and the nuclei of cells adhered to the cell insert were stained. After washing with PBS, the backs of the cell inserts were observed under a fluorescence microscope and images were captured. Five random images of each cell insert were captured followed by counting the number of cells that transferred to the cell insert.
Molecule,acceleration of expression of PDGF-BB [1],acceleration of expression of PDGF-BB ([1]; listed as retinoic acid),migration ability of mesenchymal stem cells [2]
"CC1=C(/C=C/C(C)=C/C=C/C(C)=C/C(=O)O)C(C)(C)CCC1 [tretinoin, all-trans retinoic acid]",concentration-dependent activity,accelerates expression of PDGF-BB,–
B1,–,–,significantly enhance the migration ability of stem cells
